Laboratory results reported in PMC4657098, “A Review of the Updated Pharmacophore for the Alpha 5 GABA(A) Benzodiazepine Receptor Model” (International Journal of Medicinal Chemistry, 2015).

Assays:
D1 = target: T1, D1 (Homo sapiens, UniProt P21728); assay: PDSP receptor binding, D1; settings: PDSP primary screen at 10 µM
T1 construct: purchased NIMH PDSP (Psychoactive Drug Screening Program, Roth lab, Case Western Reserve)

σ2 = assay: PDSP receptor binding, σ2; settings: PDSP primary screen at 10 µM
α1A = target: T2, α1A (Homo sapiens, UniProt P35348); assay: PDSP receptor binding, α1A; settings: PDSP primary screen at 10 µM
T2 construct: purchased NIMH PDSP (Psychoactive Drug Screening Program, Roth lab, Case Western Reserve)

α1β3γ2 GABAA/BzR = α1β3γ2 GABAA/BzR (Homo sapiens, UniProt P14867+P18507); assay: Competition binding to HEK cell membranes, α1β3γ2; parameters: expressed in transfected cells; settings: Figure 5; read-out: Ki α1
α5β3γ2 GABAA/BzR = α5β3γ2 GABAA/BzR (Homo sapiens, UniProt P18507+P31644); assay: Competition binding to HEK cell membranes, α5β3γ2; parameters: expressed in transfected cells; settings: Figure 5; read-out: Ki α5
D5 = target: T3, D5 (Homo sapiens, UniProt P21918); assay: PDSP receptor binding, D5; settings: PDSP primary screen at 10 µM
T3 construct: purchased NIMH PDSP (Psychoactive Drug Screening Program, Roth lab, Case Western Reserve)

CB1 = target: T4, CB1 (Homo sapiens, UniProt P21554); assay: PDSP receptor binding, CB1; settings: PDSP primary screen at 10 µM
T4 construct: purchased NIMH PDSP (Psychoactive Drug Screening Program, Roth lab, Case Western Reserve)

D2 = target: T5, D2 (Homo sapiens, UniProt P14416); assay: PDSP receptor binding, D2; settings: PDSP primary screen at 10 µM
T5 construct: purchased NIMH PDSP (Psychoactive Drug Screening Program, Roth lab, Case Western Reserve)

NMDA = assay: PDSP receptor binding, NMDA; settings: PDSP primary screen at 10 µM
D4 = target: T6, D4 (Homo sapiens, UniProt P21917); assay: PDSP receptor binding, D4; settings: PDSP primary screen at 10 µM
T6 construct: purchased NIMH PDSP (Psychoactive Drug Screening Program, Roth lab, Case Western Reserve)

5ht1b = target: T7, 5ht1b (Homo sapiens, UniProt P28222); assay: PDSP receptor binding, 5ht1b; settings: PDSP primary screen at 10 µM
T7 construct: purchased NIMH PDSP (Psychoactive Drug Screening Program, Roth lab, Case Western Reserve)

M2 = target: T8, M2 (Homo sapiens, UniProt P08172); assay: PDSP receptor binding, M2; settings: PDSP primary screen at 10 µM
T8 construct: purchased NIMH PDSP (Psychoactive Drug Screening Program, Roth lab, Case Western Reserve)

[1] = PDSP receptor binding, β1B; settings: PDSP primary screen at 10 µM
α2β3γ2 GABAA/BzR = α2β3γ2 GABAA/BzR (Homo sapiens, UniProt P18507+P47869); assay: Competition binding to HEK cell membranes, α2β3γ2; parameters: expressed in transfected cells; settings: Figure 5; read-out: Ki α2
mice = settings: cited from earlier work
KOR = KOR (Homo sapiens, UniProt P41145); assay: PDSP receptor binding, KOR; settings: Case Western Reserve University, read-out: KOR Ki (secondary binding)
5ht5a = target: T9, 5ht5a (Homo sapiens, UniProt P47898); assay: PDSP receptor binding, 5ht5a; settings: PDSP primary screen at 10 µM
T9 construct: purchased NIMH PDSP (Psychoactive Drug Screening Program, Roth lab, Case Western Reserve)

5ht2c = target: T10, 5ht2c (Homo sapiens, UniProt P28335); assay: PDSP receptor binding, 5ht2c; settings: PDSP primary screen at 10 µM
T10 construct: purchased NIMH PDSP (Psychoactive Drug Screening Program, Roth lab, Case Western Reserve)

DOR = target: T11, DOR (Homo sapiens, UniProt P41143); assay: PDSP receptor binding, DOR; settings: PDSP primary screen at 10 µM
T11 construct: purchased NIMH PDSP (Psychoactive Drug Screening Program, Roth lab, Case Western Reserve)

H2 = target: T12, H2 (Homo sapiens, UniProt P25021); assay: PDSP receptor binding, H2; settings: PDSP primary screen at 10 µM
T12 construct: purchased NIMH PDSP (Psychoactive Drug Screening Program, Roth lab, Case Western Reserve)

[2] = system: other receptors (PDSP panel); assay: Full PDSP panel receptor binding; settings: NIMH PDSP, Case Western Reserve
5ht3 = target: T13, 5ht3 (Homo sapiens, UniProt P46098); assay: PDSP receptor binding, 5ht3; settings: PDSP primary screen at 10 µM
T13 construct: purchased NIMH PDSP (Psychoactive Drug Screening Program, Roth lab, Case Western Reserve)

5ht6 = target: T14, 5ht6 (Homo sapiens, UniProt P50406); assay: PDSP receptor binding, 5ht6; settings: PDSP primary screen at 10 µM
T14 construct: purchased NIMH PDSP (Psychoactive Drug Screening Program, Roth lab, Case Western Reserve)

M4 = target: T15, M4 (Homo sapiens, UniProt P08173); assay: PDSP receptor binding, M4; settings: PDSP primary screen at 10 µM
T15 construct: purchased NIMH PDSP (Psychoactive Drug Screening Program, Roth lab, Case Western Reserve)

NET = target: T16, NET (Homo sapiens, UniProt P23975); assay: PDSP receptor binding, NET; settings: PDSP primary screen at 10 µM
T16 construct: purchased NIMH PDSP (Psychoactive Drug Screening Program, Roth lab, Case Western Reserve)

5ht1d = target: T17, 5ht1d (Homo sapiens, UniProt P28221); assay: PDSP receptor binding, 5ht1d; settings: PDSP primary screen at 10 µM
T17 construct: purchased NIMH PDSP (Psychoactive Drug Screening Program, Roth lab, Case Western Reserve)

## CCc1ccc2c(c1)C(=O)N(C)Cc1c(C(=O)OCCCOC(=O)c3ncn4c3CN(C)C(=O)c3cc(CC)ccc3-4)ncn1-2 [XLi-356 (10), 1,3-Bis(8-ethyl-5,6-dihydro-5-methyl-6-oxo-4H-imidazo[1,5a][1,4]benzodiazepine-3-carboxy) propyl diester]
D1
  D1 binding: ∗ (“∗” indicates “primary missed” (<50% inhibition at 10 µM))
σ2
  σ2 binding: ∗ (“∗” indicates “primary missed” (<50% inhibition at 10 µM))
α1A
  α1A binding: ∗ (“∗” indicates “primary missed” (<50% inhibition at 10 µM))
α1β3γ2 GABAA/BzR
  Ki: 1.85 µM
α5β3γ2 GABAA/BzR
  Ki: 0.101 µM
D5
  D5 binding: ∗ (“∗” indicates “primary missed” (<50% inhibition at 10 µM))
CB1
  CB1 binding: ∗ (“∗” indicates “primary missed” (<50% inhibition at 10 µM))
D2
  D2 binding: ∗ (“∗” indicates “primary missed” (<50% inhibition at 10 µM))
NMDA
  NMDA binding: ∗ (“∗” indicates “primary missed” (<50% inhibition at 10 µM))
D4
  D4 binding: ∗ (“∗” indicates “primary missed” (<50% inhibition at 10 µM))
5ht1b
  5ht1b binding: ∗ (“∗” indicates “primary missed” (<50% inhibition at 10 µM))
M2
  M2 binding: ∗ (“∗” indicates “primary missed” (<50% inhibition at 10 µM))
[1]
  β1B binding: ∗ (“∗” indicates “primary missed” (<50% inhibition at 10 µM))
α2β3γ2 GABAA/BzR
  Ki: 4.2 µM
mice; 10 mg/kg, scopolamine 1 mg/kg
  freezing (contextual memory) after scopolamine: attenuated the impairment of memory
mice; mice
  reversal of scopolamine induced memory deficits: potently reverse scopolamine induced memory deficits
KOR
  Ki: 6.12 µM
5ht5a
  5ht5a binding: ∗ (“∗” indicates “primary missed” (<50% inhibition at 10 µM))
5ht2c
  5ht2c binding: ∗ (“∗” indicates “primary missed” (<50% inhibition at 10 µM))
DOR
  DOR binding: ∗ (“∗” indicates “primary missed” (<50% inhibition at 10 µM))
H2
  H2 binding: ∗ (“∗” indicates “primary missed” (<50% inhibition at 10 µM))
[2]
  full panel receptor binding: do not bind to other receptors at levels of concern
5ht3
  5ht3 binding: ∗ (“∗” indicates “primary missed” (<50% inhibition at 10 µM))
5ht6
  5ht6 binding: ∗ (“∗” indicates “primary missed” (<50% inhibition at 10 µM))
M4
  M4 binding: ∗ (“∗” indicates “primary missed” (<50% inhibition at 10 µM))
NET
  NET binding: ∗ (“∗” indicates “primary missed” (<50% inhibition at 10 µM))
5ht1d
  5ht1d binding: ∗ (“∗” indicates “primary missed” (<50% inhibition at 10 µM))
